Drawing on ChEMBL document CHEMBL1649185, “Antibacterial activity of ultrashort cationic lipo-beta-peptides” (2009), this text covers MIC for seven compounds.

For orientation: MIC means the least concentration at which growth counts as inhibited. High values mean a need for much substance, low ones inhibition by little substance.

Format in all cases: functional
The test system of test [1] is Staphylococcus aureus. Put plainly: Antimicrobial activity against Staphylococcus aureus ATCC 29213 […].
Test [2] relates to Staphylococcus aureus. Put plainly: Antimicrobial activity against methicillin-resistant Staphylococcus aureus ATCC 33592 […].
The subject of test [3] is Staphylococcus epidermidis. Put plainly: Antimicrobial activity against Staphylococcus epidermidis ATCC 14990 […].
Test [4] deals with Staphylococcus epidermidis. The test is described as follows: Antimicrobial activity against methicillin-resistant Staphylococcus epidermidis CAN-ICU 61589 […].
Test [5] concerns Enterococcus faecalis. Put plainly: Antimicrobial activity against Enterococcus faecalis ATCC 29212 […].
Test [6] relates to Enterococcus faecium. The test is described as follows: Antimicrobial activity against Enterococcus faecium ATCC 27270 […].
The subject of test [7] is Streptococcus pneumoniae. Put plainly: Antimicrobial activity against Streptococcus pneumoniae ATCC 49619 […].
For test [8], the system named is Escherichia coli. The test is described as follows: Antimicrobial activity against Escherichia coli ATCC 25922 by […].
The test system of test [9] is Escherichia coli. Put plainly: Antimicrobial activity against Escherichia coli CAN-ICU 61714 […].
In test [10] the test system is Escherichia coli. Put plainly: Antimicrobial activity against Escherichia coli CAN-ICU 63074 […].
In test [11] the test system is Pseudomonas aeruginosa. Put plainly: Antimicrobial activity against Pseudomonas aeruginosa ATCC 27853 […].
In test [12] the test system is Pseudomonas aeruginosa. Put plainly: Antimicrobial activity against Pseudomonas aeruginosa CAN-ICU 62308 […].
Test [13] deals with Stenotrophomonas maltophilia. Put plainly: Antimicrobial activity against Stenotrophomonas maltophilia CAN-ICU 62584 […].
In test [14] the test system is Acinetobacter baumannii. The test is described as follows: Antimicrobial activity against Acinetobacter baumannii CAN-ICU 63169 by […].
Test [15] relates to Klebsiella pneumoniae. Put plainly: Antimicrobial activity against Klebsiella pneumoniae ATCC 13883 […].

In brackets after ≈: the same amount, converted by molar mass. Square brackets hold non-standard residues; d marks the D form. Peptide text beside a SMILES is read from it. * marks the point of attachment. Palmitoyl = CCCCCCCCCCCCCCCC(=O)*; Lauroyl = CCCCCCCCCCCC(=O)*

On to `CCCCCCCCCCCCCCCC(=O)N[C@@H](CCCCN)C(=O)N[C@@H](C)C(=O)N[C@@H](C)C(=O)N[C@@H](CCCCN)C(=O)O` (Palmitoyl-KAAK-OH), for which the MIC was 16 µg/mL (≈ 24.4 µM) in [1]; 16 µg/mL (≈ 24.4 µM) in test [2]; 8 µg/mL (≈ 12.2 µM) in test [3]; 8 µg/mL (≈ 12.2 µM) in [4]; 16 µg/mL (≈ 24.4 µM) in test [5]; 8 µg/mL (≈ 12.2 µM) in test [6]. Moreover, the MIC in test [7] was 128 µg/mL (≈ 195 µM); in [8], 16 µg/mL (≈ 24.4 µM); in [9], 16 µg/mL (≈ 24.4 µM); in test [10], 16 µg/mL (≈ 24.4 µM); in test [11], 32 µg/mL (≈ 48.9 µM); in test [12], 64 µg/mL (≈ 97.7 µM). In addition, the MIC in test [13], in test [14] and in [15] was 128 µg/mL (≈ 195 µM) each time.

Turning to GENTAMICIN, the MIC in test [1] came to 1 µg/mL; in test [2], 2 µg/mL; in test [3], 0.25 µg/mL; in test [4], 32 µg/mL; in test [7] it was 4 µg/mL; in [8], 1 µg/mL. In addition, the minimum inhibitory concentration (MIC) in [9] is 128 µg/mL; in test [10], 8 µg/mL; in test [11], 8 µg/mL; in test [12] it was 128 µg/mL; in [13], more than 512 µg/mL; in test [14], 128 µg/mL. Also, in test [15], the MIC worked out at 0.25 µg/mL.

Take `CCCCCCCCCCCC(=O)N[C@H](CCCN)CC(=O)N[C@@H](CC(=O)N[C@@H](CC(=O)N[C@H](CCCN)CC(=O)O)C(C)C)C(C)C`: the MIC amounted to 32 µg/mL (≈ 46.9 µM) in test [1]; 32 µg/mL (≈ 46.9 µM) in [2]; 16 µg/mL (≈ 23.4 µM) in test [3]; 32 µg/mL (≈ 46.9 µM) in test [4]; 64 µg/mL (≈ 93.7 µM) in [5]; 32 µg/mL (≈ 46.9 µM) in test [6]. Besides, the MIC worked out at 128 µg/mL (≈ 187 µM) in [7]; 64 µg/mL (≈ 93.7 µM) in test [8]; 64 µg/mL (≈ 93.7 µM) in [9]; 64 µg/mL (≈ 93.7 µM) in test [10]; 128 µg/mL (≈ 187 µM) in [11]; 128 µg/mL (≈ 187 µM) in test [12]. For the same compound, the MIC in test [13] was 256 µg/mL (≈ 375 µM); in test [14] it was more than 128 µg/mL; in test [15], 256 µg/mL (≈ 375 µM).

For `CCCCCCCCCCCCCCCC(=O)N[C@@H](CCCCN)C(=O)N[C@@H](C)C(=O)N[C@H](C)C(=O)N[C@@H](CCCCN)C(=O)O` (Palmitoyl-KA[dA]K-OH), the MIC in test [1] was found to be 8 µg/mL (≈ 12.2 µM); in [2] it was 32 µg/mL (≈ 48.9 µM); in test [3], 4 µg/mL (≈ 6.11 µM); in [4], 8 µg/mL (≈ 12.2 µM); in test [5] it was 16 µg/mL (≈ 24.4 µM); in [6] it was 8 µg/mL (≈ 12.2 µM). Besides, the MIC in test [7] stood at 128 µg/mL (≈ 195 µM); in test [8], 32 µg/mL (≈ 48.9 µM); in test [9], 32 µg/mL (≈ 48.9 µM); in test [10], 32 µg/mL (≈ 48.9 µM); in [11], 64 µg/mL (≈ 97.7 µM); in test [12], 64 µg/mL (≈ 97.7 µM). For the same compound, the MIC in [13], in [14] and in test [15] was 128 µg/mL (≈ 195 µM) throughout.

Consider `CCCCCCCCCCCC(=O)N[C@@H](CCCCN)C(=O)N[C@@H](CC(C)C)C(=O)N[C@H](CC(C)C)C(=O)N[C@@H](CCCCN)C(=O)O` (Lauroyl-KL[dL]K-OH), for which the MIC in test [1] worked out at 16 µg/mL (≈ 23.4 µM); in test [2], 16 µg/mL (≈ 23.4 µM); in test [3], 8 µg/mL (≈ 11.7 µM); in test [4], 16 µg/mL (≈ 23.4 µM); in test [5] it was 32 µg/mL (≈ 46.9 µM); in test [6], 32 µg/mL (≈ 46.9 µM). In addition, the MIC in test [7] turned out to be 64 µg/mL (≈ 93.7 µM); in [8] it was 64 µg/mL (≈ 93.7 µM); in test [9] it was 64 µg/mL (≈ 93.7 µM); in [10], 64 µg/mL (≈ 93.7 µM); in [11], 128 µg/mL (≈ 187 µM); in test [12] it was 128 µg/mL (≈ 187 µM). Further, the MIC is more than 256 µg/mL in [13], more than 256 µg/mL in [14] and more than 64 µg/mL in test [15].

Take `CCCCCCCCCCCCCCCC(=O)N[C@@H](CCCCN)C(=O)N[C@@H](CCCCN)C(=O)N[C@@H](CCCCN)C(=O)N[C@@H](CCCCN)C(=O)O` (Palmitoyl-KKKK-OH): the MIC in [1] amounted to 32 µg/mL (≈ 41.6 µM); in [2], 16 µg/mL (≈ 20.8 µM); in test [3], 4 µg/mL (≈ 5.2 µM); in [4], 8 µg/mL (≈ 10.4 µM); in test [5] it was 16 µg/mL (≈ 20.8 µM); in test [6], 16 µg/mL (≈ 20.8 µM). Moreover, the MIC in test [7] was more than 64 µg/mL; in test [8], 16 µg/mL (≈ 20.8 µM); in test [9], 16 µg/mL (≈ 20.8 µM); in test [10], 32 µg/mL (≈ 41.6 µM); in test [11], 64 µg/mL (≈ 83.2 µM); in test [12], 256 µg/mL (≈ 333 µM). Moreover, the MIC in test [13], in test [14] and in test [15] was 256 µg/mL (≈ 333 µM) throughout.

Take `CCCCCCCCCCCCCCCC(=O)N[C@@H](CCCCN)C(=O)NCC(=O)NCC(=O)N[C@@H](CCCCN)C(=O)O`: the MIC is 8 µg/mL (≈ 12.8 µM) in test [1]; 16 µg/mL (≈ 25.5 µM) in test [2]; 4 µg/mL (≈ 6.38 µM) in test [3]; 8 µg/mL (≈ 12.8 µM) in [4]; 8 µg/mL (≈ 12.8 µM) in test [5]; 16 µg/mL (≈ 25.5 µM) in [6]. Besides, the MIC is 128 µg/mL (≈ 204 µM) in [7]; 16 µg/mL (≈ 25.5 µM) in [8]; 16 µg/mL (≈ 25.5 µM) in [9]; 16 µg/mL (≈ 25.5 µM) in test [10]; 64 µg/mL (≈ 102 µM) in test [11]; 64 µg/mL (≈ 102 µM) in test [12]. Further, the results for the MIC in test [13], in [14] and in test [15] were 128 µg/mL (≈ 204 µM), 128 µg/mL (≈ 204 µM) and 64 µg/mL (≈ 102 µM), respectively.
